From PMC8704389, “New Insights into the Hypotensins from Tityus serrulatus Venom: Pro-Inflammatory and Vasopeptidases Modulation Activities” (Toxins, 2021)
No end group written: not given here.

Tests used:
[1] = test system: normotensive Wistar rats; details: by potentiating bradykinin; cited from earlier work
Description: Among the linear peptides we have the hypotensins (TsHpt), identified from TsV proteomic analyzes. Both peptides are made up of 25 amino acid residues that contain two consecutive prolines in their C-terminal portion and a punctual difference between TsHpt-I and -II, which is the residue at position 15, being a glutamine in TsHpt-I and a glutamic acid in TsHpt-II. […] The hypothesis is that the vasodilation effect is related to the releas ...

[2] = biological target: T1, NEP (Homo sapiens, UniProt P08473); experiment: Characterization of NEP inhibition (Ki and mechanism, Lineweaver-Burk); format: biochemical
T1 construct: gift of Prof; Adriana Carmona, Department of Biophysics, UNIFESP-EPM
Protocol: Figure 2 Lineweaver–Burk plot of NEP inhibition by TsHpt-I. The inhibition constant (Ki) was determined using four Abz-RGFK-EDDnp substrate concentrations (4 μM, 6 μM, 8 μM and 10 μM), with variation in the concentration of TsHpt-I (3 μM and 4 μM), keeping the amount of enzyme fixed (1.5 ng). The experiment was performed in triplicate.
To determine the inhibition constant (Ki) of TsHpt-I over NEP, four concentrations of Abz-RGFK (Dnp)-OH (4 µM, 6 µM, 8 µM and 10 µM) and 3 µM and 4 µM of TsHpt-I were tested using 1.5 ng of peptidase in 100 µL of final volume of Tris HCl pH 7.5. The Km value of the substrate used was determined to be 14 µM [27]. Controls without the TsHpt-I were also performed in all assays. The reactions were monitored as described above (item 5.2). The Lineweaver–Burk plot was constructed (1/V × 1/(S)) according to the presented mechanism. The Ki was calculated as described by Segel. All assays were performed in triplicate.

T1 sequence (P08473 2-750): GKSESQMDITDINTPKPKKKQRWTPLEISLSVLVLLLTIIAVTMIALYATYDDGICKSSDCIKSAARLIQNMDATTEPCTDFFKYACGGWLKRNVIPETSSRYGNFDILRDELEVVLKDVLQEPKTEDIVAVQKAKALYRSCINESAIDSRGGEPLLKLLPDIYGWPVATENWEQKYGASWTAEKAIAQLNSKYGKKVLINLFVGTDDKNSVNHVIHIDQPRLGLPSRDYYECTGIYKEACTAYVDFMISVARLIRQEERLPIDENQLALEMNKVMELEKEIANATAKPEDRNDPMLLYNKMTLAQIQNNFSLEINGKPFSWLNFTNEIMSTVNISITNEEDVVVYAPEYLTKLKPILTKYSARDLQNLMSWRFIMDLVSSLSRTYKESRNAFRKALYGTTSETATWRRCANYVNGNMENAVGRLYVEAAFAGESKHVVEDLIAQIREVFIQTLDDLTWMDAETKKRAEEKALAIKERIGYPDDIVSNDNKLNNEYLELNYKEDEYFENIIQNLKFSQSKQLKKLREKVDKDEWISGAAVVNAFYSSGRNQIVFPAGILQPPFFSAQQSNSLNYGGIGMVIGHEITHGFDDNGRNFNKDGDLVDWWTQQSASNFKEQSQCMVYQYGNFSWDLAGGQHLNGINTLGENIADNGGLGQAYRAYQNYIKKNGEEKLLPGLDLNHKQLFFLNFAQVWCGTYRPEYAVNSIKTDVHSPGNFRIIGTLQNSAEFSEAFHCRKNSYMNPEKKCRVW

In the case of AEIDFSGIPEDIIKQIKETNAKPPA [TsHpt-I], the hypotensive activity [1] is listed as “able to exert hypotensive activity”, the Ki [2] is listed as 4.35 µM and the “mechanism of inhibition of NEP” value ([2]; Lineweaver-Burk plot, triplicate) is listed as “non-competitive inhibitor”.
